Assay results published in US11149047B2, “Aryl imidazoles for treatment of cancer” (Aptose Biosciences Inc., priority 2017, dated 2021).
Entries after “also recorded” stand apart in the source; their conditions may differ.

Key:
[1] = system: TP53, phos-CHEK1, γH2AX, MAPK14, MAPK8 in MV4-11 cells; experiment: Western blot of DNA damage and cell stress pathways; format: cell-based; conditions: 500 nmol/L
Description: Cells were treated as described above. Whole-cell lysates were prepared, separated by SDS-PAGE, and transferred to nitrocellulose membranes. Densitometry was performed using ImageJ or Image Studio Lite Version5.2 software and normalized to the density of GAPDH.
The increase in total protein was concomitant with an increase in phospho-Ser15 and acetyl-K382 (FIG. 12B). TP53 is phosphorylated at Ser15 and Ser20 in response to DNA damage, which reduces MDM2 binding and proteasomal degradation of p53. Furthermore, p53 is acetylated in response to cellular stress, and this modification can further stabilize TP53 protein levels and modulate binding activity. Activation of TP53 can trigger apoptosis through upregulation of proapoptotic factors such as BBC3 (PUMA), PMAIP1 (NOXA), and BAX. […] A concentration-dependent increase in ? H2AX was detected in all AML lines tested, thereby adding further credence to the concept that COMPOUND I triggers the DDR pathway (FIG. 12D).

[2] = system: DNA double strand breaks in CAOV3 cells; experiment: Neutral comet assay; format: cell-based, human
Description: Comet assay kits were purchased from Trevigen (Gaithersburg, Md.) and neutral comet assay was performed according to the manufacturer's instructions. Images were collected with a Keyence Fluorescent Microscope (Keyence America, Itasca, Ill.) and quantitated with OpenComet software.
The structure of COMPOUND I is similar to drugs that bind to quadruplex structures in DNA which results in strand breaks; this led to the investigation of whether COMPOUND I caused damage to DNA. The parental Raji cells were treated with 0.5 μM COMPOUND I for increasing periods of time and induction of DNA damage was assessed by accumulation of the phosphorylated forms of ATM and γH2AX measured by Western blot analysis. […] Raji cells have very small nuclei making it difficult to quantify the formation of γH2AX foci, so the human ovarian carcinoma cell line CAOV3 was used for this purpose. […] Evidence of DNA damage was further strengthened by the results of the neutral comet assay which mainly detects DNA double strand breaks (FIG. 2D).

[3] = patients with solid tumors, up to maximum tolerated dose; cited from earlier work
[4] = system: AML cells (MV4-11, KG-1, EOL-1); experiment: Flow cytometry cell-cycle analysis, time course; format: cell-based; conditions: IC50 concentration
Description: (§1) Cells were treated as described above. To determine apoptosis, cells were stained with FITC-Annexin V and propidium iodide (PI; BD Pharmingen, catalog #556570) and then analyzed on BD Accuri C6 flow cytometer. To measure DNA synthesis and phases of cell cycle, treated cells were stained with 5-ethynyl-2′-deoxyuridine (Edu) Alexa Fluor 488 (Thermo Fisher Scientific, catalog #C10425) and PI (PI/RNase A staining solution, BD Biosciences, catalog #550825). The dead cells were excluded from analysis by using Live/Dead Fixable Far Red Dead Cell Stain Kit (Thermo Fisher Scientific, catalog #L34973). Staining was performed as per the manufacturers' instructions.
There was no perturbation of cell-cycle phase distribution in cells treated with vehicle alone. An increase in the fraction of cells in G0-G1 was detected as early as 2 hours, and this fraction continued to increase in a time-dependent manner throughout the 24-hour period of drug exposure (FIGS. 9D-F).

KG-1 AML cells = experiment: Uptake and efflux assay by mass spectrometry; format: in vitro ADME; conditions: exposed 1 or 6 hours, then drug-free media
Description: Cells exposed to COMPOUND I were homogenized in acetonitrile containing 5 ng of deuterated COMPOUND I standard. Samples were analyzed at the UCSD Molecular Mass Spectrometry Facility employing an Agilent 1260 liquid chromatograph (LC) system coupled with a Thermo LCQdeca mass spectrometer using positive ion mode electrospray ionization as the ion source.
Measurement of the kinetics of uptake and efflux of COMPOUND I in KG-1 AML cells determined by mass spectrometry indicated a gradual approach to steady state and a rapid initial efflux, but a very prolonged terminal efflux (FIGS. 20A and 20B). When KG-1 cells were exposed to COMPOUND I for either 1 or 6 hours and then placed in drug-free media, the efflux pattern consisted of a rapid phase occurring during the first 30 minutes followed by a prolonged terminal phase, such that significant amounts of COMPOUND I were retained in KG-1 cells for longer than 24 hours. […] (FIGS. 20C and 20D).

MV4-11 cells = experiment: Flow cytometry cell-cycle analysis; format: cell-based; conditions: 1 μmol/L, 24-hour exposure
Description: as §1
Previous studies reported upregulation of KLF4 and CDKN1A expression as a potential mechanism of APT0-COMPOUND I activity in tumors. […] The upregulation of CDKN1A mRNA increased with duration of exposure in all AML cell lines tested (FIGS. 15D and 15E). At later time points, CDKN1A expression began to decrease, likely due to increasing cell death. Induction of CDKN1A expression is typically associated with a subsequent G0-G1, cell-cycle arrest, which was observed following COMPOUND I treatment of solid tumor lines.

Cc1[nH]c2ccc(F)cc2c1-c1nc2c3cccnc3c3ncccc3c2[nH]1 [COMPOUND I, 2-(5-fluoro-2-methyl-1H-indol-3-yl)-1H-imidazo[4,5-f][1,10]phenanthroline]
time at which an increase in phos-CHEK1 was detected [1]: 1 h | time of phos-CHEK1 peak [1]: approximately 4 hours | MAPK14 and MAPK8 phosphorylation ([1]; 4- to 6-hour treatment): increase in both MAPK14 phos-T180 and MAPK8 phos-Thr183/pTyr185 | DDR marker γH2AX ([1]; by 6 hours): robust increase | TP53 levels ([1]; 1, 3, and 6 hours): significant increase in TP53 levels | tail DNA vs DMSO ([2]; 0.5 μM, 6 h): no increase in tail DNA | DNA in comet tails ([2]; 6 h treatment then 18 h drug free media (pulse-chase)): significantly more DNA in the comet tails | myelosuppression [3]: did not produce myelosuppression; also recorded: does not produce myelosuppression | earliest time an increase in the fraction of cells in G0-G1 was detected [4]: 2 h | duration of rapid efflux phase (KG-1 AML cells): 30 min | retention of significant amounts in cells (KG-1 AML cells): > 24 h | G0-G1 cell-cycle arrest (MV4-11 cells): all live cells had arrested in G0-G1
